Measured values as given in paper PMC9953315, “Cytochrome P450 Surface Domains Prevent the β-Carotene Monohydroxylase CYP97H1 of Euglena gracilis from Acting as a Dihydroxylase” (Biomolecules, 2023).

Legend:
Assay in all cases: in vivo carotenoid production in E. coli, HPLC-DAD and LC-MS
Format in all cases: cell-based
[1] = target: T1, tCYP97A3At (Arabidopsis thaliana, UniProt Q93VK5); details: beta-carotene producing E. coli, S. oleracea ferredoxin / ferredoxin reductase co-expressed, product beta-cryptoxanthin
T1 construct: gene CYP97A3; first 77 residues deleted, no MBP tag; expressed in beta-carotene producing E. coli with Spinacia oleracea ferredoxin / ferredoxin reductase
T1 sequence (Q93VK5 78-595): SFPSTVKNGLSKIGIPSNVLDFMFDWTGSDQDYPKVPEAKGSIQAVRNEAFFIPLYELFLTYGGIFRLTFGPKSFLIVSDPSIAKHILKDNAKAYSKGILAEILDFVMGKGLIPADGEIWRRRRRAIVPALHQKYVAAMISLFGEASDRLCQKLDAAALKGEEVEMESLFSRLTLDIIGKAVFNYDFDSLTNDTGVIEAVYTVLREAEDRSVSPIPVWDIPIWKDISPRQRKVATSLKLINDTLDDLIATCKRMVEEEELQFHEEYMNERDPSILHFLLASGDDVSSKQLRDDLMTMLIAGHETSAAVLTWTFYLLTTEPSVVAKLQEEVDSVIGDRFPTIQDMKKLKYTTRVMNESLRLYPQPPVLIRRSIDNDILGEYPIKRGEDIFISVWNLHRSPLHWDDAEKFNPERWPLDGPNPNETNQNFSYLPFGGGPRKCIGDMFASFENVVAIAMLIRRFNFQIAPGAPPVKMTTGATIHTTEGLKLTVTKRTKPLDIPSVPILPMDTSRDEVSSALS

[2] = target: T2, tCYP97H1 (Euglena gracilis, UniProt A0A1Y1C5R9, F221A); details: beta-carotene producing E. coli, S. oleracea ferredoxin / ferredoxin reductase co-expressed; product beta-cryptoxanthin
T2 construct: gene CYP97H1; plastid signal M1-L116 deleted; E. coli codon optimised; expressed in beta-carotene producing E. coli with Spinacia oleracea ferredoxin / ferredoxin reductase

[3] = target: T3, tCYP97H1 (Euglena gracilis, UniProt A0A1Y1C5R9, F242A); details: beta-carotene producing E. coli, S. oleracea ferredoxin / ferredoxin reductase co-expressed; product beta-cryptoxanthin
T3 construct: gene CYP97H1; plastid signal M1-L116 deleted; E. coli codon optimised; expressed in beta-carotene producing E. coli with Spinacia oleracea ferredoxin / ferredoxin reductase

[4] = target: T4, tCYP97H1 (Euglena gracilis, UniProt A0A1Y1C5R9); details: beta-carotene producing E. coli, S. oleracea ferredoxin / ferredoxin reductase co-expressed, product beta-cryptoxanthin
T4 construct: gene CYP97H1; plastid signal M1-L116 deleted; E. coli codon optimised; expressed in beta-carotene producing E. coli with Spinacia oleracea ferredoxin / ferredoxin reductase

[5] = target: T5, tCYP97H1 (Euglena gracilis, UniProt A0A1Y1C5R9, F218A); details: beta-carotene producing E. coli, S. oleracea ferredoxin / ferredoxin reductase co-expressed, product beta-cryptoxanthin
T5 construct: gene CYP97H1; plastid signal M1-L116 deleted; E. coli codon optimised; expressed in beta-carotene producing E. coli with Spinacia oleracea ferredoxin / ferredoxin reductase

[6] = target: T6, tCYP97H1 (Euglena gracilis, UniProt A0A1Y1C5R9, F246A); details: beta-carotene producing E. coli, S. oleracea ferredoxin / ferredoxin reductase co-expressed; product beta-cryptoxanthin
T6 construct: gene CYP97H1; plastid signal M1-L116 deleted; E. coli codon optimised; expressed in beta-carotene producing E. coli with Spinacia oleracea ferredoxin / ferredoxin reductase

[7] = beta-cryptoxanthin formed in situ, side product zeaxanthin

T4 sequence (A0A1Y1C5R9 entry or part of it): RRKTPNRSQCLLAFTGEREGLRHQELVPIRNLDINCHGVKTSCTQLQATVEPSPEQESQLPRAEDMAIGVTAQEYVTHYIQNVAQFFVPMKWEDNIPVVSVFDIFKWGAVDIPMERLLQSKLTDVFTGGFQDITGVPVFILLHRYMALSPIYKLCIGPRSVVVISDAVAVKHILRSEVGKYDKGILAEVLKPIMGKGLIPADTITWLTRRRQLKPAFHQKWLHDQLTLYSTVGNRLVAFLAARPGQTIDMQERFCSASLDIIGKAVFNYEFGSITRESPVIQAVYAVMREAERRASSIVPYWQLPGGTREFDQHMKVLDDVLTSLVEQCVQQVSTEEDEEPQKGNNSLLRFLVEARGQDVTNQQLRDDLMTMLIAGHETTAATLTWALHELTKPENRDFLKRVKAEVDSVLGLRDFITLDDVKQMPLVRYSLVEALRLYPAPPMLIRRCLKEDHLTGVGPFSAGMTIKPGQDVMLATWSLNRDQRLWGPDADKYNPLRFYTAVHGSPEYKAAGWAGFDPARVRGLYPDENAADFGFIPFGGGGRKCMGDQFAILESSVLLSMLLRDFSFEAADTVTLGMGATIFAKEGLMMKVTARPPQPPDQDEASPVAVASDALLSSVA
T5 sequence (A0A1Y1C5R9 entry or part of it F218A): as the sequence (A0A1Y1C5R9 entry or part of it) above, with F102A counted along it
T6 sequence (A0A1Y1C5R9 entry or part of it F246A): as the sequence (A0A1Y1C5R9 entry or part of it) above, with F130A counted along it
T2 sequence (A0A1Y1C5R9 entry or part of it F221A): as the sequence (A0A1Y1C5R9 entry or part of it) above, with F105A counted along it
T3 sequence (A0A1Y1C5R9 entry or part of it F242A): as the sequence (A0A1Y1C5R9 entry or part of it) above, with F126A counted along it

Structure (SMILES)	in vivo carotenoid production in E. coli, HPLC-DAD and LC-MS [1]	in vivo carotenoid production in E. coli, HPLC-DAD and LC-MS [2]	in vivo carotenoid production in E. coli, HPLC-DAD and LC-MS [3]	in vivo carotenoid production in E. coli, HPLC-DAD and LC-MS [4]	in vivo carotenoid production in E. coli, HPLC-DAD and LC-MS [5]	in vivo carotenoid production in E. coli, HPLC-DAD and LC-MS [6]	in vivo carotenoid production in E. coli, HPLC-DAD and LC-MS ([1]; beta-cryptoxanthin formed in situ, product zeaxanthin)	in vivo carotenoid production in E. coli, HPLC-DAD and LC-MS [4, 7]	in vivo carotenoid production in E. coli, HPLC-DAD and LC-MS [5, 7]
CC1=C(/C=C/C(C)=C/C=C/C(C)=C/C=C/C=C(C)/C=C/C=C(C)/C=C/C2=C(C)CCCC2(C)C)C(C)(C)CCC1 [β-carotene]	production of a small amount of hydroxylated β-carotene in vivo	All these single mutants exhibited reduced β-cryptoxanthin production	All these single mutants exhibited reduced β-cryptoxanthin production	the deletion of the plastid peptide signal from residue M1 to L116 improved activity	All these single mutants exhibited reduced β-cryptoxanthin production	All these single mutants exhibited reduced β-cryptoxanthin production			
CC1=C(/C=C/C(C)=C/C=C/C(C)=C/C=C/C=C(C)/C=C/C=C(C)/C=C/C2=C(C)C[C@@H](O)CC2(C)C)C(C)(C)CCC1 [β-cryptoxanthin]							β-cryptoxanthin and zeaxanthin detection were confirmed by mass spectrometry in the strain ETL154, expressing CYP97A3	A small side production of zeaxanthin was detected with CYP97H1 and the F105A mutant	the zeaxanthin:β-cryptoxanthin ratio was displaced in favour of zeaxanthin
